Data on seven molecules can be found in US11149047B2, “Aryl imidazoles for treatment of cancer” (Aptose Biosciences Inc., priority 2017, dated 2021).

Molecules are shown by their SMILES.

Assay [1] has as its system G4 sequences (telomere, MYC, KIT, rRNA oligos). Put plainly: Modified FRET assay, melting of G-quadruplex oligos. Particulars: FIG. 13C; COMPOUND I data at 6-hour incubation. The class given is binding, human. The protocol: FRET assay and data analysis was performed as described previously and modified by using dual labeled (5′ FAM-3′ BHQ1) single-stranded oligos. Melting temperature of each oligo was assessed in the presence of vehicle DMSO or escalating concentrations of COMPOUND I, Fe(COMPOUND I)3, CX-5461, or TMPyP4 using a Roche LightCycler 96 [at 37° C. for 300 seconds followed by temperature increased in […] intervals up to 91° C. (25 steps) with 300-second total incubation time at each temperature]. Drug and oligo reaction mixes were analyzed immediately or incubated for 6 hours at room temperature and then analyzed. […] COMPOUND I data are presented for 6-hour time point.
The ability of COMPOUND I (parental monomeric form of the drug) and Fe(COMPOUND I)3 to bind and stabilize G4 sequences using a modified FRET assay was evaluated (FIGS. 21 and 22). TMPyP4, a well-known G4 ligand, and CX-5461, a clinical stage molecule recently reported to have G4-binding properties, were utilized as controls to assess the specificity of COMPOUND I and Fe(COMPOUND I)3 for G4-stabilizing activity.

For a further assay, the system named is Raji cells. Put plainly: Cytotoxicity study, MTS cell proliferation assay, 5 days. The class given is cell-based, human. The conditions noted are these: concentrations up to 300 nM, FIG. 5C. The protocol: (§1) The human Burkitt lymphoma cell line Raji was obtained from the American Type Tissue Culture Collection and cultured in RPMI 1640 medium (ATCC) supplemented with 10% fetal bovine serum (ATCC,) at 37° C., 5% CO2. The COMPOUND I-resistant Raji (Raji/COMPOUND IR) cell line was generated by exposure to progressively higher concentrations of COMPOUND I over a period of 6 months. CAOV3 cells were obtained from ATCC and cultured in complete DMEM supplemented with 10% fetal bovine serum. MCF7 vector controlled and BRCA1 shRNA subclones were obtained from Dr. Simon Powell (Memorial Sloan-Kettering Cancer Center) and cultured in EMBM with 10% fetal bovine serum. MCF10A and hTERT-IMEC clones were obtained from Dr. Ben Ho Park (Johns Hopkins University). HCT116 BRCA2^+/+ cells and BRCA2^−/− cells were obtained from Dr. Samuel Aparicio (British Columbia Cancer Research Centre). PEO1 and PEO4 cells were obtained from Dr. Sharon Cantor (University of Massachusetts) and these cell lines were cultured under the same conditions as previously published. Sakai et al., Functional restoration of BRCA2 protein by secondary BRCA2 mutations in BRCA2-mutated ovarian carcinoma, Cancer Res. 2009; 69 (16):6381-6; Konishi et al., Mutation of a single allele of the cancer susceptibility gene BRCA1 leads to genomic instability in human breast epithelial cells, Proc. Natl. Acad. Sci. 2011; 108 (43):17773-8; Xu et al., CX-5461 is a DNA G-quadruplex stabilizer with selective lethality in BRCA1/2 deficient tumours, Nature Communications 2017; 8:14432, all of which are hereby incorporated by reference.
(§2) Cells were plated and treated with the indicated drugs in 96-well plates for 5 days. Cell viability was measured using CellTiter 96 AQueous one solution (MTS) cell proliferation assay purchased from Promega, and IC50 values were calculated using GraphPad Prism 6 Software.

Another assay has as its system Raji/COMPOUND IR cells. Described as above. It counts as cell-based, human. The protocol:
as §1, §2

The test system of assay [2] is MCF10A BRCA1-het #1 and #2 clones vs control. In words: Sensitivity of BRCA1-proficient and -deficient isogenic clones. The class given is cell-based, human. The conditions noted are these: FIG. 3A. The protocol:
as §2
(§3) The finding that COMPOUND I produced DNA damage led to the investigation of whether cells deficient in homologous recombination were hypersensitive to this drug. The hypothesis that there would be synthetic lethality between COMPOUND I and BRCA1 deficiency using isogenic pairs of BRCA1-proficient and -deficient human cell lines was tested. […] The conclusion that BRCA1-deficient cells are hypersensitive to COMPOUND I was further supported by the results obtained in MCF7 E7 cells in which BRCA1 expression is stably knocked down by the expression of an shRNAi. […] Whether BRCA2-deficient cells are more sensitive to COMPOUND I was tested using the BRCA2-proficient and BRCA2-deficient ovarian cancer cell lines, PEO4 and PEO1, respectively. PEO1 is BRCA2-deficient and sensitive to cisplatin and a poly(ADP-ribose) polymerase inhibitor AG14361. PEO4 was derived from ascites at the time of relapse with cisplatin resistance and contains a secondary mutation that restores BRCA2 function. […] Thus, loss of either BRCA1 or BRCA2 function renders malignant cells hypersensitive to COMPOUND I.

The test system of assay [3] is hTERT-IMEC BRCA1 knock-in clone. The description is as above. It counts as cell-based, human. The conditions noted are these: FIG. 3B. The protocol:
as §2, §3

In assay [4] the test system is PEO4 and PEO1 ovarian cancer cell lines. In words: Sensitivity of BRCA2-proficient and -deficient cells. It counts as cell-based. Particulars: FIG. 3D. The protocol:
as §2, §3

Take `Cc1cnc(CNC(=O)c2c(=O)c3ccc(N4CCCN(C)CC4)nc3n3c2sc2ccccc23)cn1` [CX-5461]: the “stabilization of G4 sequences (ΔT1/2)” value in assay [1] is “potent stabilizer of all G4 sequences tested”.
`COc1ccc2c3c([nH]c2c1)[C@H](CC(C)C)N1C(=O)[C@H](CCC(=O)OC(C)(C)C)NC(=O)[C@@H]1C3` [Ko143, reference compound]: the “toxicity of Ko143 alone” value is “not toxic” in the assay with Raji cells and “not toxic” with Raji/COMPOUND IR cells (concentrations up to 300 nM, FIG. 5C).
As to `C[n+]1ccc(-c2c3nc(c(-c4cc[n+](C)cc4)c4ccc([nH]4)c(-c4cc[n+](C)cc4)c4ccc([nH]4)c(-c4cc[n+](C)cc4)c4nc2C=C4)C=C3)cc1` [TMPyP4], the “stabilization of G4 sequences (ΔT1/2)” value in assay [1] is reported as “stabilized all G4 motifs except the G4 of the KIT gene promoter”.
On to `N.N.O=C([O-])C1(C(=O)[O-])CCC1.[Pt+2]` [carboplatin, reference compound], for which the “sensitivity of Raji/COMPOUND IR cells relative to Raji” value with Raji/COMPOUND IR cells was “significantly cross-resistant”.
`COc1cc([C@@H]2c3cc4c(cc3[C@@H](O[C@@H]3O[C@@H]5CO[C@@H](C)O[C@H]5[C@H](O)[C@H]3O)[C@H]3COC(=O)[C@H]23)OCO4)cc(OC)c1O` [etoposide, reference compound]: the “sensitivity of Raji/COMPOUND IR cells relative to Raji” value in the assay with Raji/COMPOUND IR cells is “hypersensitive”.
In the case of `O=C(c1cc(Cc2n[nH]c(=O)c3ccccc23)ccc1F)N1CCN(C(=O)C2CC2)CC1` [olaparib, reference compound], the “sensitivity of BRCA1-het knockin clones vs control” value in assay [2] is on record as “more sensitive to olaparib”. Besides, the “sensitivity of BRCA1 2-bp knock-in clone” value in assay [3] was “hypersensitive to both olaparib and COMPOUND I”. In assay [4], the “effect of restoration of BRCA2 function (PEO4 vs PEO1)” value is “increased resistance”.
Turning to `CC[C@@]1(O)C(=O)OCc2c1cc1n(c2=O)Cc2cc3c(CN(C)C)c(O)ccc3nc2-1` [topotecan, reference compound], the “cross-resistance of Raji/COMPOUND IR cells” value in the assay with Raji/COMPOUND IR cells (vs Raji) is 3 fold. In addition, the “effect of Ko143 on topotecan resistance” value in the assay on Raji/COMPOUND IR cells (with Ko143, FIG. 5E) is on record as “reversed this resistance completely”.
